# Results: patent US8129521B2, “One pot synthesis of tetrazole derivatives of rapamycin” (Abbott Laboratories, priority 2005, dated 2012)
# Tests used:
# Assay type in all cases: physicochemical
# [1] = Equilibration studies of pyran and oxepane forms of zotarolimus without buffer (acetonitrile/water, C-18 HPLC); conditions: non-buffered, 66% acetonitrile in water
# Description: Studies were also carried out under non-buffered conditions in a solvent mixture of acetonitrile/water. Multiple injections of zotarolimus were performed on a C-18 Altima column (Alltech Associates, Inc.; Deerfield, Ill.) using 66% acetonitrile in water in a non-buffered media. The pyran and oxepane forms were collected. These forms were re-injected on C-18 column to study the equilibrium ratio at various intervals. […] These observations confirmed that zotarolimus exists in an equilibrium mixture of […] pyran (1) vs. oxepane (2) forms.
# [2] = Zotarolimus stability with various concentrations of BHT
# Description: A stability study was carried out to prevent this oxidation using phenolic anti-oxidants and identified BHT as a suitable compound. Tables 3 and 4 present stability data using BHT at various concentrations (% represented w/w) and temperatures.
# [3] = Stability of zotarolimus on storage (potency over time, no anti-oxidant)
# Description: Several lots of zotarolimus prepared by the one-pot methods lost significant potency over time. The potency loss was higher at increased temperature, but there was no apparent change in the impurity profile. Table 2 presents the potency of a lot of zotarolimus at various time intervals and temperature conditions. […] This loss was exacerbated in a sealed container when held at 40° C.—from 96.0% to 37.4% over just two months.
smiles,measurement,setting,value
"CO[C@H]1C[C@@H]2CC[C@@H](C)[C@@](O)(O2)C(=O)C(=O)N2CCCC[C@H]2C(=O)O[C@H]([C@H](C)C[C@@H]2CC[C@H](n3cnnn3)[C@H](OC)C2)CC(=O)[C@H](C)/C=C(\C)[C@@H](O)[C@@H](OC)C(=O)[C@H](C)C[C@H](C)/C=C/C=C/C=C/1C [zotarolimus, 40-epi-(1-tetrazolyl)-rapamycin]",time to complete equilibration between two isomers,[1],7 to 8 h
same,potency,"[2]; 4° C., BHT 0.0%, 0 weeks",97.2%
same,potency,"[2]; 4° C., BHT 0.0%, 2 weeks",95.2%
same,potency,"[2]; 4° C., BHT 0.0%, 4 weeks",96.4%
same,potency,"[2]; 4° C., BHT 0.0%, 6 weeks",96.6%
same,potency,"[2]; 4° C., BHT 0.0%, 8 weeks",97.5%
same,potency,"[2]; 4° C., BHT 0.0%, 12 weeks",95.9%
same,potency,"[2]; 4° C., BHT 0.1%, 0 weeks",96.7%
same,potency,"[2]; 4° C., BHT 0.1%, 2 weeks",96.7%
same,potency,"[2]; 4° C., BHT 0.1%, 4 weeks",97.3%
same,potency,"[2]; 4° C., BHT 0.1%, 6 weeks",96.8%
same,potency,"[2]; 4° C., BHT 0.1%, 8 weeks",96.9%
same,potency,"[2]; 4° C., BHT 0.1%, 12 weeks",96.8%
same,potency,"[2]; 4° C., BHT 0.2%, 0 weeks",96.3%
same,potency,"[2]; 4° C., BHT 0.2%, 2 weeks",96.7%
same,potency,"[2]; 4° C., BHT 0.2%, 4 weeks",97.5%
same,potency,"[2]; 4° C., BHT 0.2%, 6 weeks",96.9%
same,potency,"[2]; 4° C., BHT 0.2%, 8 weeks",96.9%
same,potency,"[2]; 4° C., BHT 0.2%, 12 weeks",96.8%
same,potency,"[2]; 4° C., BHT 0.5%, 0 weeks",96.5%
same,potency,"[2]; 4° C., BHT 0.5%, 2 weeks",96.5%
same,potency,"[2]; 4° C., BHT 0.5%, 4 weeks",96.2%
same,potency,"[2]; 4° C., BHT 0.5%, 6 weeks",95.7%
same,potency,"[2]; 4° C., BHT 0.5%, 8 weeks",96.9%
same,potency,"[2]; 4° C., BHT 1.0%, 0 weeks",95.9%
same,potency,"[2]; 4° C., BHT 1.0%, 2 weeks",96.3%
same,potency,"[2]; 4° C., BHT 1.0%, 4 weeks",96.6%
same,potency,"[2]; 4° C., BHT 1.0%, 6 weeks",96.1%
same,potency,"[2]; 4° C., BHT 1.0%, 8 weeks",96.9%
same,potency,"[2]; 4° C., BHT 1.0%, 12 weeks",95.5%
same,potency,"[2]; 40° C., BHT (w/w) 0.1%, 0 weeks",96.7%
same,potency,"[2]; 40° C., BHT (w/w) 0.1%, 2 weeks",96.5%
same,potency,"[2]; 40° C., BHT (w/w) 0.1%, 4 weeks",96.9%
same,potency,"[2]; 40° C., BHT (w/w) 0.1%, 6 weeks",96.1%
same,potency,"[2]; 40° C., BHT (w/w) 0.1%, 8 weeks",96.2%
same,potency,"[2]; 40° C., BHT (w/w) 0.1%, 12 weeks",95.6%
same,potency,"[2]; 40° C., BHT (w/w) 0.2%, 0 weeks",96.3%
same,potency,"[2]; 40° C., BHT (w/w) 0.2%, 2 weeks",96.6%
same,potency,"[2]; 40° C., BHT (w/w) 0.2%, 4 weeks",97.2%
same,potency,"[2]; 40° C., BHT (w/w) 0.2%, 6 weeks",97.1%
same,potency,"[2]; 40° C., BHT (w/w) 0.2%, 8 weeks",97.0%
same,potency,"[2]; 40° C., BHT (w/w) 0.5%, 0 weeks",96.5%
same,potency,"[2]; 40° C., BHT (w/w) 0.5%, 2 weeks",96.1%
same,potency,"[2]; 40° C., BHT (w/w) 0.5%, 4 weeks",96.4%
same,potency,"[2]; 40° C., BHT (w/w) 0.5%, 6 weeks",95.7%
same,potency,"[2]; 40° C., BHT (w/w) 0.5%, 8 weeks",96.1%
same,potency,"[2]; 40° C., BHT (w/w) 0.5%, 12 weeks",95.9%
same,potency,"[2]; 40° C., BHT (w/w) 1.0%, 0 weeks",95.9%
same,potency,"[2]; 40° C., BHT (w/w) 1.0%, 2 weeks",95.4%
same,potency,"[2]; 40° C., BHT (w/w) 1.0%, 4 weeks",96.4%
same,potency,"[2]; 40° C., BHT (w/w) 1.0%, 6 weeks",95.6%
same,potency,"[2]; 40° C., BHT (w/w) 1.0%, 8 weeks",96.5%
same,potency,"[2]; 40° C., BHT (w/w) 1.0%, 12 weeks",95.8%
same,potency,"[3]; storage 5° C. (sealed), 1 month after synthesis",95.0%
same,potency,"[3]; storage 5° C. (sealed), 2 months after synthesis",95.4%
same,potency,"[3]; storage 5° C. (sealed), 2 weeks after synthesis",98.2%
same,potency,"[3]; storage 5° C. (sealed), 3 months after synthesis",95.1%
same,potency,"[3]; storage 5° C. (sealed), Initial",95.7%
same,potency,"[3]; storage 25° C. (sealed), 1 month after synthesis",88.8%
same,potency,"[3]; storage 25° C. (sealed), 2 months after synthesis",81.6%
same,potency,"[3]; storage 25° C. (sealed), 2 weeks after synthesis",95.7%
same,potency,"[3]; storage 25° C. (sealed), 3 months after synthesis",69.8%
same,potency,"[3]; storage 25° C. (sealed), Initial",95.1%
same,potency,"[3]; storage 25° C. (unsealed), 1 month after synthesis",91.6%
same,potency,"[3]; storage 25° C. (unsealed), 2 months after synthesis",87.1%
same,potency,"[3]; storage 25° C. (unsealed), 2 weeks after synthesis",98.0%
same,potency,"[3]; storage 25° C. (unsealed), 3 months after synthesis",75.5%
same,potency,"[3]; storage 25° C. (unsealed), Initial",95.5%
same,potency,"[3]; storage 40° C. (sealed), 1 month after synthesis",61.9%
same,potency,"[3]; storage 40° C. (sealed), 2 months after synthesis",37.4%
same,potency,"[3]; storage 40° C. (sealed), 2 weeks after synthesis",81.1%
same,potency,"[3]; storage 40° C. (sealed), Initial",96%
same,stability at room temperature,[3]; without anti-oxidant,unstable at room temperature
